From patent US20210254056A1, “IDENTIFICATION AND TARGETED MODULATION OF GENE SIGNALING NETWORKS” (CAMP4 THERAPEUTICS CORPORATION, priority 2017, published 2021)

Tested on: hepatocytes
Experiment: RNA-seq of hepatocytes treated with Phase III failure compounds
Details: hepatocytes
Protocol: RNA-seq was performed to determine the effects of the compounds on hepatocytes.
Significance was determined by the criteria of FPKM≥0.5, a log 2(fold-change)≥1, and a […].

CCC(CC)[C@H](NC(C)=O)[C@@H]1[C@H](O)[C@@H](C(=O)O)C[C@H]1NC(=N)N.O.O.O [peramivir (trihydrate), peramivir]
RNA-seq results: SLC33A1 (gene SLC33A1): −0.02 | RNA-seq results, SLC35C1 (gene SLC35C1): 0.17 | RNA-seq results: SLC35C1 (gene SLC35C1): 0.07 | RNA-seq results, SLC39A4 (gene SLC39A4): 0.31 | RNA-seq results: SLC39A4 (gene SLC39A4): 0.32 | RNA-seq results, SLC40A1 (gene SLC40A1): 0.39 | RNA-seq results: SLC40A1 (gene SLC40A1): −0.18 | RNA-seq results, SLC46A1 (gene SLC46A1): 0.08 | RNA-seq results: SLC46A1 (gene SLC46A1): 0.17 | RNA-seq results, SLC51A (gene SLC51A): 0.08 | RNA-seq results: SLC51A (gene SLC51A): −0.03 | RNA-seq results, SLC51B (gene SLC51B): 0.29 | RNA-seq results: SLC51B (gene SLC51B): 0.08 | RNA-seq results, SLCO1B1 (gene SLCO1B1): −0.33 | RNA-seq results: SLCO1B1 (gene SLCO1B1): −0.23 | RNA-seq results, SLCO4C1 (gene SLCO4C1): −0.39 | RNA-seq results: SLCO4C1 (gene SLCO4C1): −0.05 | RNA-seq results, SMAD4 (gene SMAD4): −0.2 | RNA-seq results: SMAD4 (gene SMAD4): −0.17 | RNA-seq results, SMARCB1 (gene SMARCB1): 0.11 | RNA-seq results: SMARCB1 (gene SMARCB1): −0.19 | RNA-seq results, SNX10 (gene SNX10): −0.36 | RNA-seq results: SNX10 (gene SNX10): −0.57 | RNA-seq results, SORT1 (gene SORT1): −0.15 | RNA-seq results: SORT1 (gene SORT1): −0.12 | RNA-seq results, SPP2 (gene SPP2): −0.12 | RNA-seq results: SPP2 (gene SPP2): −0.17 | RNA-seq results, SPRTN (gene SPRTN): −0.17 | RNA-seq results: SPRTN (gene SPRTN): −0.18 | RNA-seq results, ST3GAL5 (gene ST3GAL5): −0.19 | RNA-seq results: ST3GAL5 (gene ST3GAL5): −0.11 | RNA-seq results, STAT1 (gene STAT1): −0.31 | RNA-seq results: STAT1 (gene STAT1): −0.45 | RNA-seq results, STEAP3 (gene STEAP3): 0.03 | RNA-seq results: STEAP3 (gene STEAP3): 0.03 | RNA-seq results, STIM1 (gene STIM1): 0.1 | RNA-seq results: STIM1 (gene STIM1): −0.07 | RNA-seq results, SULT2A1 (gene SULT2A1): 0.65 | RNA-seq results: SULT2A1 (gene SULT2A1): −0.07 | RNA-seq results, SUOX (gene SUOX): −0.18 | RNA-seq results: SUOX (gene SUOX): −0.01 | RNA-seq results, TARS2 (gene TARS2): 0.2 | RNA-seq results: TARS2 (gene TARS2): −0.08 | RNA-seq results, TAT (gene TAT): −0.56 | RNA-seq results: TAT (gene TAT): 0.16 | RNA-seq results, TCIRG1 (gene TCIRG1): 0.29 | RNA-seq results: TCIRG1 (gene TCIRG1): 0.39 | RNA-seq results, TCTN3 (gene TCTN3): −0.04 | RNA-seq results: TCTN3 (gene TCTN3): −0.34 | RNA-seq results, TDO2 (gene TDO2): −0.58 | RNA-seq results: TDO2 (gene TDO2): −0.14 | RNA-seq results, TF (gene TF): 0.02 | RNA-seq results: TF (gene TF): −0.09 | RNA-seq results, TFR2 (gene TFR2): 0.21 | RNA-seq results: TFR2 (gene TFR2): 0.07 | RNA-seq results, TGFB1 (gene TGFB1): −0.25 | RNA-seq results: TGFB1 (gene TGFB1): −0.16 | RNA-seq results, THPO (gene THPO): −0.03 | RNA-seq results: THPO (gene THPO): 0.03 | RNA-seq results, THRB (gene THRB): −0.28 | RNA-seq results: THRB (gene THRB): −0.18 | RNA-seq results, TK2 (gene TK2): 0.12 | RNA-seq results: TK2 (gene TK2): 0.15 | RNA-seq results, TMEM67 (gene TMEM67): −0.01 | RNA-seq results: TMEM67 (gene TMEM67): 0.04 | RNA-seq results, TMEM135 (gene TMEM135): −0.13 | RNA-seq results: TMEM135 (gene TMEM135): −0.41 | RNA-seq results, TMEM165 (gene TMEM165): −0.14 | RNA-seq results: TMEM165 (gene TMEM165): −0.17 | RNA-seq results, TMLHE (gene TMLHE): −0.03 | RNA-seq results: TMLHE (gene TMLHE): −0.50 | RNA-seq results, TMPRSS6 (gene TMPRSS6): 0.1 | RNA-seq results: TMPRSS6 (gene TMPRSS6): 0.34 | RNA-seq results, TNFRSF1A (gene TNFRSF1A): 0.25 | RNA-seq results: TNFRSF1A (gene TNFRSF1A): −0.13 | RNA-seq results, TNFSF11 (gene TNFSF11): −0.54 | RNA-seq results: TNFSF11 (gene TNFSF11): −0.28 | RNA-seq results, TP53 (gene TP53): −0.02 | RNA-seq results: TP53 (gene TP53): 0.04 | RNA-seq results, TTC21B (gene TTC21B): −0.14 | RNA-seq results: TTC21B (gene TTC21B): −0.28 | RNA-seq results, TTPA (gene TTPA): −0.46 | RNA-seq results: TTPA (gene TTPA): −0.20 | RNA-seq results, TTR (gene TTR): 0.19 | RNA-seq results: TTR (gene TTR): −0.23 | RNA-seq results, TYMP (gene TYMP): 0.37 | RNA-seq results: TYMP (gene TYMP): 0.37 | RNA-seq results, UBR1 (gene UBR1): −0.38 | RNA-seq results: UBR1 (gene UBR1): −0.15 | RNA-seq results, UGT1A1 (gene UGT1A1): −0.06 | RNA-seq results: UGT1A1 (gene UGT1A1): −0.38 | RNA-seq results, UGT2B28 (gene UGT2B28): 0.09 | RNA-seq results: UGT2B28 (gene UGT2B28): 0.41 | RNA-seq results, UNC13D (gene UNC13D): 0.05 | RNA-seq results: UNC13D (gene UNC13D): 0.44 | RNA-seq results, UPB1 (gene UPB1): 0.33 | RNA-seq results: UPB1 (gene UPB1): 0.19 | RNA-seq results, UQCRB (gene UQCRB): 0.17 | RNA-seq results: UQCRB (gene UQCRB): −0.18 | RNA-seq results, UROC1 (gene UROC1): −0.25 | RNA-seq results: UROC1 (gene UROC1): −0.26 | RNA-seq results, UTRN (gene UTRN): −0.35 | RNA-seq results: UTRN (gene UTRN): −0.06 | RNA-seq results, VIPAS39 (gene VIPAS39): 0.05 | RNA-seq results: VIPAS39 (gene VIPAS39): −0.08 | RNA-seq results, VLDLR (gene VLDLR): 0.62 | RNA-seq results: VLDLR (gene VLDLR): −0.30 | RNA-seq results, VPS13A (gene VPS13A): −0.28 | RNA-seq results: VPS13A (gene VPS13A): 0.08 | RNA-seq results, VPS33B (gene VPS33B): 0.18 | RNA-seq results: VPS33B (gene VPS33B): 0.13 | RNA-seq results, WAS (gene WAS): 0.19 | RNA-seq results: WAS (gene WAS): 0.03 | RNA-seq results, WDR35 (gene WDR35): −0.19 | RNA-seq results: WDR35 (gene WDR35): −0.03 | RNA-seq results, XDH (gene XDH): 0.28 | RNA-seq results: XDH (gene XDH): 0.17 | RNA-seq results, YARS2 (gene YARS2): 0 | YARS2 expression, RNA-seq result (gene YARS2): −0.36
